Results published in US20180371046A1, “Therapy for Lower Urinary Tract Dysfunctions” (University of Pittsburgh - Of the Commonwealth System of …, priority 2017, published 2018).
“Also recorded” adds a separate entry of the source.

What was measured:
[1] = test system: CaV1.2; assay: Immunohistochemistry of L-type Ca2+ channel subunit in irradiated mouse bladders; format: in vivo; conditions: relaxin treated, listed as relaxin
From the text: (§1) FIG. 5A-5D. Relaxin treatment improves detrusor contractility and reduces bladder fibrosis in mouse bladders with chronic stage radiation cystitis. FIG. 5A. Length-tension profiles from irradiated (9-weeks post exposure) mouse bladders with and without relaxin treatment. […] FIG. 5B. […] FIG. 5C. […] Expression of the L-type Ca^2+ channel subunit, CaV1.2, was examined by immunohistochemistry. […] FIG. 5D.
(§2) A mouse model was developed to mimic chronic radiation cystitis. As a surrogate to chronic radiation cystitis in the mouse, a laparotomy was performed where the bladder was briefly withdrawn for selective high dose (10 Gy) irradiation (FIG. 4(A)). Delivered to the pelvic region such a dose could be lethal (LD50≅8 Gy). […] Moreover, following spinal cord injury, rodents can develop detrusor-sphincter-dyssynergia (DSD) which also occurs in humans. […] This is the first application of relaxin to treat bladder dysfunction due to irradiation damage or any urinary tract disease. The data also are by far the most impressive reversal/treatment for radiation cystitis.

[2] = test system: irradiated mouse bladder (chronic radiation cystitis); assay: Decerebrated cystometry with simultaneous EUS electromyography in the selective bladder irradiation (chronic radiation cystitis) mouse model; format: in vivo; conditions: mice 9 weeks after 10 Gy selective bladder irradiation
Procedure: FIG. 4. Cystometric and EUS electromyographic assessment of irradiated mice with and without relaxin treatment. A. Selective bladder irradiation model. B-D. Bladder and sphincter functions were assessed using decerebrated cystometry with simultaneous electromyography (EMG; green traces) at 9 weeks following bladder irradiation.
as §2

[3] = test system: aged rat bladder; assay: Collagen staining and collagen:tissue ratio in aged and adult rat bladder sections; format: in vivo; conditions: for collagen:tissue ratio / bladder collagen content / deposition: 400 μg/kg/day for 14 days; for bladder collagen content / deposition: aged rats (male where stated)
Procedure: The other bladder strip was fixed in 10% PFA, embedded in paraffin, cut 5 μm thick, stained for collagen (Sigma HT251) and examined using bright field microscopy (total mag., 400×). The images were obtained at identical conditions and color analysis was performed using the ImageJ software threshold function to discriminate collagen and smooth muscle content.
(§3) Aged (24 month) and adult (9 month) male and female F344 rats were administered recombinant human relaxin-2 (400 μg/kg/day) or saline for 14-days via subcutaneous osmotic pumps. At the end of the treatment period, bladders were isolated. Contractile function was assessed in bladder muscle strips using length-tension relationship and responses to agonists and electrical field stimulation. Bladder wall morphology was examined in histological sections stained for collagen and elastin.
(§4) Aged (24 month) and adult (9 month) male and female F344 rats (obtained through the aged rodent colony of the National Institute on Aging) were administered recombinant hRLX2 (400 μg/kg/day) or saline for 14-days via subcutaneous osmotic pumps. At the end of the treatment period, bladders were isolated and contractile function assessed in organ bath experiments using muscle strips to measure length-tension relationships and responses to agonists and electrical field stimulation. Bladder wall morphology was examined in 3 μm-thick histological sections stained for collagen and elastin. The expression of the L-type Ca^2+ channel α-subunit, Cav1.2, and relaxin receptor subtypes, RXFP1 and RXFP2, were determined by immunohistochemistry.

[4] = test system: RXFP1 and RXFP2 receptor; conditions: Bathgate et al. 2013; cited from earlier work
[5] = test system: aged rat prostate / urethra; assay: Histological sections of male rat urethras at the level of the prostate (aged rats, BPH); format: in vivo; conditions: hRLX2 treated vs control, preliminary studies
From the text: FIG. 21. Histological sections of male rat urethras—at the level of the prostate—from control and hRLX2 treated aged rats.
Benign Prostatic Hyperplasia is a non-malignant enlargement of the prostate and is a condition that frequently affects the elderly male population. BPH in humans can cause constriction of the urethra, outlet obstruction, inflammation, fibrosis and the development of LUTD (Bushman, W. A., et al.: The role of prostate inflammation and fibrosis in lower urinary tract symptoms. Am J Physiol Renal Physiol, 311: F817, 2016). […] However, the therapeutic effects of hRLX2 on BPH itself can still be evaluated in aged animal models. We propose that selective injection of hRLX2 (FIG. 20) to the lateral and ventral lobes (corresponding to the transitional zone of the human prostate) or systemic administration could be performed in aged rats or mice. Following treatment, the prostates could be evaluated histologically for morphological changes such as smooth muscle or extracellular matrix content, signs of inflammation (e.g., mast cell infiltration, edema) or epithelial damage, as that observed in preliminary studies (FIG. 21).

[6] = test system: irradiated mouse bladder; assay: Histology and collagen quantification of irradiated mouse bladders; format: in vivo
From the text: as §1, §2

[7] = Plasma hRLX2 level in rats; format: in vivo; conditions: rat, male; SC pump 77 μg/kg/d/14 days
[8] = clinical trials in acute heart failure and scleroderma; as high as 250 μg/kg/day; cited from earlier work
[9] = test system: aged rat bladder; assay: Length-tension studies and agonist/EFS responses of bladder strips from aged and adult rats; format: in vivo
Procedure: Adult (9 months old) and aged (24 months old) Fisher 344/Brown Norway F1 (F-344) male rats were used in this study. Six out of twelve rats in each age group were treated with relaxin (400 μg/kg/day) or vehicle which were infused by osmotic mini-pumps (ALZET) for 14 days, after which bladders were excised and cut from outlet to dome along the midline ventral and dorsal aspects to form two strips.
One strip was placed in a recording chamber with oxygenated Krebs solution. The base was pinned to a fixed platform and the dome connected to a tension transducer mounted on a programmable stepper motor. Bladder strips were stretched longitudinally in 500 μm increments and baseline tension allowed to stabilize (passive tension). Three field stimulation (20 Hz, 3 sec train, 0.5 ms pulse width, 15V output) contractions were performed at each stretch to determine active force generation.
as §3, §4

[10] = test system: Cav1.2; assay: Immunohistochemistry of Cav1.2 in aged rat bladders; format: in vivo; conditions: aged (24 month) rat bladders, 400 μg/kg/day for 14 days
From the text: FIG. 7. Expression of L-type Ca^2+ channels is increased in aged rat bladders following relaxin treatment. Immunohistological staining of aged (>24 month old) rat bladder sections for the L-type Ca^2+ channel al C subunit, Cav1.2α. Expression of Cav1.2α was increased in relaxin-treated rat bladders compared to sham controls, similar to that observed in irradiated mouse bladders (FIG. 5C). […] This emphasizes the heterogeneity of aging related bladder changes.
as §4

[11] = test system: C57Bl/6 mice with chronic radiation cystitis; assay: Urine spot analysis of irradiated mice; format: in vivo, mouse
Procedure: FIG. 16. Urine spot analysis from irradiated mice with and without hRLX2 therapy. Mice were placed in metabolic cages with Whatman paper on the floor for 2 hours between 11 AM and 2 PM without access to food and water. Upon completion, filter papers were collected and photographed under UV light.
Thus, our assessment is that the therapeutic dose of hRLX2 is likely between 80 and 400 μg/kg/day.

[12] = test system: irradiated mouse bladder detrusor; assay: Length-tension profiles and contractile responses of irradiated mouse bladders after relaxin treatment; format: in vivo; conditions: relaxin treated
From the text: as §1, §2

[13] = biological target: RXFP2 (Homo sapiens, UniProt Q8WXD0); conditions: cited from earlier work
Sequence of RXFP2 (Q8WXD0 whole entry, species assumed): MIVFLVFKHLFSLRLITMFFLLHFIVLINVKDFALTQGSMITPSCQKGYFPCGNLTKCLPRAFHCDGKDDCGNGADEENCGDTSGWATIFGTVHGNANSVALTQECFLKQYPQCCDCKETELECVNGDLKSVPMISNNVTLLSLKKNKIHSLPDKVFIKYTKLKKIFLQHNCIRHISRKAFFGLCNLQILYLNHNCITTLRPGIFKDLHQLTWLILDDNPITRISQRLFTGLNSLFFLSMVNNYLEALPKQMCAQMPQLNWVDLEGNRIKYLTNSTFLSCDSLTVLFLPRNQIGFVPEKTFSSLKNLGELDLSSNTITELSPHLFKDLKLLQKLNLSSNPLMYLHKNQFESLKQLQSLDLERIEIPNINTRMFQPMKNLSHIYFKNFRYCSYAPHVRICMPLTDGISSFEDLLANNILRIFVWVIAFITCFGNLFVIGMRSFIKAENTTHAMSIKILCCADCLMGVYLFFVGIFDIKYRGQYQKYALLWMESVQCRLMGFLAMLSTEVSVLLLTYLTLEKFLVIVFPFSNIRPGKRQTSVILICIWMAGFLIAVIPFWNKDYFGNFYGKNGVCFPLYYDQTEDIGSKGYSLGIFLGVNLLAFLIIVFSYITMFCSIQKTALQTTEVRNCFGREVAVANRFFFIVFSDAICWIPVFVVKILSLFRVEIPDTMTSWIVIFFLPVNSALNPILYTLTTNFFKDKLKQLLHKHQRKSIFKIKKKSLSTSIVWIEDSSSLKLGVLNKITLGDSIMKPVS

[14] = adult (9 month) male rats, relaxin vs vehicle, 400 μg/kg/day for 14 days

human relaxin-2 [hRLX2]
CaV1.2 expression in the detrusor [1]: returned by relaxin treatment; also recorded: an increase in the expression of Cav1.2α
EUS electromyogram: guarding reflex and bursting ([2]; relaxin 400 μg/kg/day sc for 2 weeks from week 7): recovered with relaxin treatment; also recorded: return of a normal guarding reflex and bursting
cystometry: voiding function and bladder compliance ([2]; relaxin 400 μg/kg/day sc mini-pump for 2 weeks from week 7): abolished overflow incontinence with a return of voiding function and improved bladder compliance
collagen:tissue ratio ([3]; 9 month adult male rats, no significant difference to vehicle): 0.33±0.09
size of each bladder layer and collagen distribution ([3]; 9 month old rats, sham vs relaxin treated): not significantly different
collagen:tissue ratio ([3]; 24 month aged male rats, p<0.05): 0.36±0.08
bladder collagen content / deposition [3]: decreased by hRLX2 treatment
bladder collagen content / deposition ([3]; listed as relaxin): decreased following relaxin treatment; also recorded: significant decrease in collagen content; also recorded: decreases in collagen content
detrusor layer thickness and collagen infiltration ([3]; aged rats, relaxin treated vs shams): increased detrusor layer thickness and less collagen infiltration compared to shams
affinity, RXFP1 versus RXFP2 [4]: greater for the RXFP1 than the RXFP2 receptor
prostatic urethra histology (inflammation, columnar epithelium disruption, collagen infiltration, internal urethral sphincter damage) [5]: prevented these adverse changes
bladder wall histology (urothelium, lamina propria, detrusor layer) ([6]; relaxin treated): intact urothelium, normal lamina propria and increased thickness of the detrusor layer
collagen content ([6]; relaxin vs sham treated): significant decrease in collagen content; also recorded: decreased collagen content
Plasma level, exogenous [7]: 5,042 ♂ pg/ml
safety for use in humans [8]: validated its safety for use in humans
compliance and force generation ([9]; 24 month-old Fischer F-344 rats, 400 μg/kg/day sc ALZET pumps, 2 weeks (Example 2)): substantial increases in both compliance and force generation
active tension generation [9, 14]: increased active tension generation compared to controls
passive tension profile [9, 14]: no significant difference
passive tension profile ([9]; aged (24 month) rats, male where stated, 400 μg/kg/day sc for 14 days): return of passive tension profiles comparable to adults
passive tension profile ([9]; aged (24 month) rats, male where stated, 400 μg/kg/day sc for 14 days, listed as Relaxin): return of passive tension profiles comparable to adults
passive tension profile ([9]; aged (24 month) rats, male where stated, 400 μg/kg/day sc for 14 days, listed as relaxin): passive tension began increasing at a smaller degree of stretch compared to relaxin treated animals; also recorded: decreased the passive tension profile to that of adult animals
responses to contractile agonists (ABMA and oxotremorine-M) or depolarization (KCl and EFS) ([9]; aged and adult rat bladders, relaxin vs sham): no significant change
tissue compliance ([9]; aged female rats, 400 μg/kg/day for 14 days): nor was it significantly altered
active tension generation ([9]; aged rats, relaxin vs vehicle/sham, 400 μg/kg/day for 14 days): equivocal; also recorded: no significant changes
Cav1.2 expression in the detrusor layer [10]: increased in aged rat bladders following hRLX2 treatment
Cav1.2 expression in the detrusor layer ([10]; listed as Relaxin): increased expression of L-type Ca^2+ channels
Cav1.2 expression in the detrusor layer ([10]; listed as relaxin): increased; also recorded: increases in smooth muscle expression of Cav1.2α
urine spot analysis: number of spots and voided volumes ([11]; irradiated mice (10 Gy), 50 μg/kg/day sc osmotic pump, two weeks): small decrease in the number of spots and increase of voided volumes
urine spot analysis: voiding pattern ([11]; irradiated mice (10 Gy), 400 μg/kg/day): voiding pattern identical to those of non-irradiated controls
urine spot analysis: voided volumes and number of spots ([11]; irradiated mice, dose not given): increased voided volumes and decreased the number of spots, restoring normal bladder function
active tension / active force generation (length-tension profile) ([12]; 9 weeks post exposure): reversed by relaxin treatment to a profile similar to non-irradiated control mouse bladders; also recorded: increased active force generation
passive tension (length-tension profile) ([12]; 9 weeks post exposure): reversed by relaxin treatment to a profile similar to non-irradiated control mouse bladders; also recorded: reversed by relaxin
responses to purinergic agonist (ABMA), depolarization (KCl) or electrical field stimulation (EFS) [12]: no significant change
contractile response of the detrusor to oxotremorine-M (cholinergic response) ([12]; listed as Relaxin): increased the contractile response of the detrusor to muscarinic receptor agonist, oxotremorine-M
contractile response of the detrusor to oxotremorine-M (cholinergic response) ([12]; listed as relaxin): an increase in the cholinergic response

B1: insulin-like peptide-3 (protein, listed as Homo sapiens)
chain: MDPRLPAWALVLLGPALVFALGPAPTPEMREKLCGHHFVRALVRVCGGPRWSTEARRPATGGDQRESHSVSQAGLKLLSSSNPPTLTFQSVGISDVSCYSGWRDDICSMGWWPTVISRWDLACSPCPRPLTITATTVQLPPTLHATAASVAVPNKTC
affinity for RXFP2 [13]: highest affinity for RXFP2
